Our source for the Kd and Km values is PMC8824312 (Bioorganic chemistry, 2021).

Like-named read-outs stand apart in the source and are kept apart here.

In data set [1] the target is T1, Salicylate hydroxylase (NahG) (Pseudomonas putida, UniProt P23262).
T1 sequence (P23262 1-434): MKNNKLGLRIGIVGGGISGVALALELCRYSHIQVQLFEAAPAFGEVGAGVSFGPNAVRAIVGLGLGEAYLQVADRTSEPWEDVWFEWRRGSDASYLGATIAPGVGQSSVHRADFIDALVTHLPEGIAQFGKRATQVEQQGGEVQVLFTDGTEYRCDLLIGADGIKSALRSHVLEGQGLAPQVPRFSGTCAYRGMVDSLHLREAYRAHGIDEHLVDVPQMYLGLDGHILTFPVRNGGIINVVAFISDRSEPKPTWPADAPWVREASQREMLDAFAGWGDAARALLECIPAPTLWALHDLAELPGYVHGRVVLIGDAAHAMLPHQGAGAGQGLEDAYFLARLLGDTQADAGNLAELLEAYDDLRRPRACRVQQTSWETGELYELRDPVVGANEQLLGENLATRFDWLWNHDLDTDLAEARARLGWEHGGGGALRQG
The data set can be described thus: fluorometric titration.

The target in data set [2] is T1, Salicylate hydroxylase (NahG). The data set can be described thus: fluorometric titration. In kind it is binding.
Substrate in data set [3]: NC(=O)C1=CN([C@@H]2O[C@H](COP(=O)(O)OP(=O)(O)OC[C@H]3O[C@@H](n4cnc5c(N)ncnc54)[C@H](O)[C@@H]3O)[C@@H](O)[C@H]2O)C=CC1
The data set can be described thus: initial rate of NADH consumption, spectrophotometric. The data set is classed as biochemical, Pseudomonas putida. The note with it: pH 8.5, I = 0.21 M (NaCl), 25 °C, salicylate, FAD as cofactor.

Usually Kd stands for a measure of binding affinity in units of concentration. Low values mean tighter binding, high ones weaker binding. One may read the Km as the substrate concentration at which the rate is half of its maximum.

As for `Cc1cc2nc3c(=O)[nH]c(=O)nc-3n(C[C@H](O)[C@H](O)[C@H](O)COP(=O)(O)OP(=O)(O)OC[C@H]3O[C@@H](n4cnc5c(N)ncnc54)[C@H](O)[C@@H]3O)c2cc1C` [Flavin adenine dinucleotide], the dissociation constant (Kd) in data set [1] came out at 36 ± 8 nM.

With `Cc1cc2nc3c(=O)[nH]c(=O)nc-3n(C[C@H](O)[C@H](O)[C@H](O)COP(=O)(O)O)c2cc1C` [riboflavin 5′-monophosphate], the Kd in data set [1] is 2200 ± 200 nM.

In data set [2], `O=C(O)c1ccccc1O` [salicylate] returned a Kd of 280 ± 30 nM.

B1: Salicylate hydroxylase (NahG) (Pseudomonas putida) (protein)
chain: T1 sequence (P23262 1-434)
Turning to B1, in data set [3], the Km was 27 µM.
